Experimental findings from paper PMC8877008, “Synthesis and Structure–Activity Relationship Studies of Benzimidazole-4,7-dione-Based P2X3 Receptor Antagonists as Novel Anti-Nociceptive Agents” (Molecules, 2022) are described below.

In general, IC50 refers to the concentration needed to halve the response being measured.

Data set [1] addresses T1, hP2X3R (Homo sapiens, UniProt P56373).
T1 construct: expressed in transfected cells
T1 sequence (P56373 1-397): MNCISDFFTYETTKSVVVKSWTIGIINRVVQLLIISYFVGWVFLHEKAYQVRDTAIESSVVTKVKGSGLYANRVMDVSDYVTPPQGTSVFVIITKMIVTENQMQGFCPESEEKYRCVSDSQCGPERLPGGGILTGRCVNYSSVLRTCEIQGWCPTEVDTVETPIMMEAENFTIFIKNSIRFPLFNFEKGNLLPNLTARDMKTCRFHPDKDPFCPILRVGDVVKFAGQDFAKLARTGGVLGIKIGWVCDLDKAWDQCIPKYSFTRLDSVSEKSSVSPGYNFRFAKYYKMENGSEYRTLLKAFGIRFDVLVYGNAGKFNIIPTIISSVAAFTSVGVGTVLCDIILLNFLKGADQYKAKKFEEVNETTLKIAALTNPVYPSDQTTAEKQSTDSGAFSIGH
Briefly: Calcium influx (Fluo-4) evoked by α,β-meATP in HEK293 cells stably expressing hP2X3R. As to conditions: antagonistic activity; HEK293 cells expressing hP2X3R; agonist at EC70. The format is cell-based. As to the method:
For the evaluation of P2XR activities, a cell-based assay system was employed to measure the level of fluorescence emission, based on Fluo-4 dye, during Ca^2+ influx evoked by αβmeATP in HEK293 cells stably expressing hP2X2/3R and hP2X3R. The library containing 8364 representative compounds for the screening of antagonistic activity was provided by the Korea Chemical Bank. The antagonistic activities were evaluated in the presence of P2X3R agonist of the concentration for EC70 value (200–250 nM for hP2X3R and 1–4 μM for hP2X2/3R highly expressed cell lines), and AF353 was used as the positive control antagonist for comparison. For the first round of screening, a single concentration (25 μM) of each library compound was tested to identify initial hit compounds, which were subsequently validated using both concentrations of 25 and 10 μM. Using a cut-off threshold of higher than 50% antagonistic activity and after confirming dose-dependency, 12 main hit compounds were selected.
3.4. Cell-Based Assay: Measurement of Calcium Influx by Fluorescence-Based Fluo-4 Dye Uptake in HEK293 Cells Expressing hP2X2/3 and hP2X3 Receptors
Human P2X3-expressing HEK293 cells were grown in DMEM supplemented with 10% fetal bovine serum and 1% antibiotic–antimycotic as a monolayer culture at 37 °C in a humidified atmosphere of 5% CO2. The 96-well black plates used in the experiments were prepared by coating them with 1× poly-D-lysine (A3890401, Thermo-Fisher Scientific Korea, Seoul, South Korea). An aliquot of 40 μL 1× poly-D-lysine was used to treat each of the wells in a flat orientation. After leaving the plates for at least 4 h to absorb the poly-D-lysine, the plates were allowed to dry for at least 6 h. The DMEM used in the culture of HEK293 cells was removed from the dish, followed by application of 3 mL 1× PBS for washing. Removal of 1× PBS was followed by application of 1 mL trypsin/EDTA, and the cells were collected by centrifugation at 1200 rpm for 2 min. The supernatant was removed, and 1 mL fresh DMEM added. The cells were resuspended in media and plates prepared with 4.8 × 10^4 cells/well in 56 μL/well. After 18 h of cell culture in the 96-well black plate, 56 μL of Fluo-4 dye (Fluo-4 Direct^TM Calcium Assay Kit, F10471, Invitrogen, Thermo-Fisher Scientific Korea, Seoul, South Korea) was added to each well, prepared according to the manufacturer’s protocol, and incubated for 50 min~1 h under culturing conditions. Then, 12.4 μL of the appropriate compound solution was added to each well, and the positive control was AF353 (A1612, Sigma Aldrich Korea, Seoul, South Korea) and the negative control was 5% DMSO. Plates were incubated at room temperature and sealed to avoid interference from light for 50 min~1 h. Flexstation 3 and its software provided by Molecular Devices was used for the measurement of fluorescence in real time of treatments using prepared α,β-meATP (M6517, Sigma Aldrich) solution to evoke calcium influx and increased cell membrane potential.
For the analysis of antagonistic activities, all data were calculated by Origin Pro 9.1 software provided by Originlab and the fitting of graphs was proceeded by the growth/sigmoidal and hill1 process within no weights for data selections. For the analysis of the behavioral assessments of pain models, all data are expressed as mean ± SEM. The dose–response data are presented as percentages of the maximum possible effect. Statistical significance was analyzed by independent t-test. The criterion for statistical significance was p < 0.05. The statistical analysis was performed using SPSS 25.0 software (IBM Corp., Armonk, NY, USA).

A short description of data set [2]: Metabolic stability in microsomal fraction, mouse. In kind it is in vitro ADME. As to conditions: mouse; Table 1.
Data set [3] can be described thus: Metabolic stability in microsomal fraction, rat. The format is in vitro ADME. As to conditions: Table 1.
A short description of data set [4]: Metabolic stability in microsomal fraction, human. In kind it is in vitro ADME. As to conditions: Table 1.

`Cc1nc2c([nH]1)C(=O)C(Cl)=C(Nc1ccc(F)c(F)c1)C2=O` [KCB-77033]: in data set [1], the 50% inhibitory concentration (IC50) worked out at 1030 ± 73 nM. Besides, in data set [2], the “Metabolic Stability Mouse (%)” value was 5.2 ± 1.6%. Moreover, the “Metabolic Stability Rat (%)” value in data set [3] came to 3.4 ± 0.1%. The “Metabolic Stability Human (%)” value in data set [4] is 9.0 ± 1.5%.
